Data: US12497431B2, “Modified peptide fragments of Cav-1 protein and the use thereof in the treatment of fibrosis” (Rein Therapeutics, Inc., priority 2018, dated 2025)
Non-standard residues stand in square brackets, D forms with d. Residues, ends and D or L forms follow the SMILES beside them. No end group written: not given here. Orn = NCCC[C@H](N)C(=O)O

Assays:
[1] = Cav-1 peptide solubility in Tris Buffered Saline, pH 7.51 (absorbance at 600 nm); format: physicochemical; conditions: for UV (Abs) at dissolution / UV (Abs) after rest: absorbance at 600 nm, 50 mg in 5 mL TBS pH 7.51; for UV (Abs) at dissolution: immediately after dissolution for insoluble peptides, after 10 minutes for soluble peptides; for UV (Abs) after rest: again after 10 minutes (APi2348 15 min, APi2352 5 min, APi2353 15 min, APi2345 only after 20 min)
Protocol: In order to determine which peptides may be most soluble in a liquid formulation, 50 mg of each Cav-1 peptide was dissolved in 5 mL of Tris Buffered Saline, pH 7.51. Each sample was vortexed to help the sample dissolve completely. The absorbance at 600 nm was measured immediately after dissolution of the peptides for insoluble peptides, or after 10 minutes for soluble peptides. Absorbance was measured again after 10 minutes for insoluble peptides except for samples APi2348, APi2352, APi2353 which were measured a second time at 15 minutes, 5 minutes, or 15 minutes after dissolution, respectively.

[2] = tested on: Idiopathic Pulmonary Fibrosis (IPF) cell line 2051; assay: Western blot of SMA and tubulin in IPF cells treated with Cav-1 peptides; format: cell-based; conditions: 2 days treatment, 10 uM peptide (LTI-03 10 and 90 uM), ImageJ ratio (FIG. 2)
Protocol: Cav-1 peptides were dissolved in DMSO to make 10 mM stock solutions. 10 mM stock solutions of each peptide were then diluted in HBSS to make 900 μM working stock solutions. The DMSO resuspended polypeptides as well as the working stocks were stored at −20 deg C. For culture media, working stocks were added to DMEM culture media to a final concentration of 10 μM of the Cav-1 peptide.
Idiopathic Pulmonary Fibrosis (IPF) cell line 2051 was purchased and IPF cells from the fourth passage were seeded in 100 mm plates containing DMEM, 10% FBS, and 1% P/S. IPF cells were washed with 4 mL DMEM+1% P/S and serum starved overnight. Cells were then treated for 2 days with either 44 uL HBSS (negative control), 10 uM LTI-03 (SEQ ID NO: 2), 90 uM LTI-03 (positive control), 10 uM APi2350, 10 uM APi2354, 10 uM APi2355, 10 uM APi2356 or with 20 uL of DMSO (negative control).
After 2 days of treatment, cells were washed once in cold, sterile HBSS. HBSS was removed, and 150 uL of lysis buffer with protease inhibitor cocktail was added to the cells. Cells were incubated with lysis buffer for 10 minutes. Cell lysates were scraped from the plates and collected. Cell lysates were then sonicated twice. Following sonication, the lysates were centrifuged at 13,000 RPM for 20 minutes. Lysates were then flash frozen in liquid nitrogen, thawed, vortexed, and centrifuged again at 13,000 RPM for 30 minutes. The supernatant was then collected and the pellet was discarded. The concentration of cell lysates was then determined by BCA assay.
Western blots were performed to evaluate the presence the effects of treatments. Briefly, 12 ug of each lysate was run on a 10% polyacrylamide gel. The gel was then transferred to a membrane and washed. Primary antibodies against smooth muscle actin (SMA) and Tubulin Results of the western blot can be seen in FIG. 1. The treatment for each of the lysates in the pictured lanes are: 1: Untreated, 2: 10 μM LTI-03, 3: 90 μM LTI-03, 4: 10 μM APi2350, 5: 10 μM APi2354, 6: 10 μM APi 2355, 7: 10 μM APi2356, and 8: DMSO.
Western blots were photographed and analyzed with ImageJ to determine a ratio of smooth muscle actin to tubulin (FIG. 2).

[3] = tested on: AEC2 cells of non-specific interstitial pneumonia (NSIP) precision cut lung slices; assay: Lysotracker staining of AEC2 cells in NSIP precision cut lung slices; format: cell-based; conditions: NSIP PCLS, 48 h after a single treatment with 10, 100, or 500 μM
Text: (§1) To assess the effect of Cav-1 peptide APi2355 (SEQ ID NO: 8) on AEC2 cell viability, surgical biopsies were obtained for the preparation of non-specific interstitial pneumonia precision cut lung slices (PCLS). One individual with non-specific interstitial pneumonia (NSIP) and another with end-stage IPF were processed. Lysotracker staining, which stains acidic compartments in live cells and selectively accumulates in the lamellar bodies of lung AEC2 cells (Van der Velden et al., 2013), was performed. Cav-1 peptide was suspended in DMEM/5% FBS, and PCLS slices (n=5 replicates/treatment group) were treated with 10, 100, or 500 μM LTI-03 or APi2355 (Var 55). Lysotracker staining (Green DND-26, Promega) was performed on NSIP PCLS 48 h after a single treatment. […] In addition, lysotracker staining (Red DND-99, Promega) was performed on end-stage IPF on days 1, 2, 3, 5, and 7 following daily treatment with LTI-03 or APi2355.

[4] = tested on: AEC2 cells of end-stage IPF precision cut lung slices; assay: Lysotracker staining of AEC2 cells in end-stage IPF precision cut lung slices; format: cell-based; conditions: end-stage IPF PCLS, daily treatment, staining on days 1, 2, 3, 5, and 7; 10, 100, or 500 μM
Text: as §1

[5] = TBS pH 7.51, compared to other tested peptides

Row | Molecule | UV (Abs) at dissolution [1] | UV (Abs) after rest [1] | also measured
1 | CC(C)[C@H](NC(=O)[C@@H](NC(=O)[C@H](Cc1ccccc1)NC(=O)[C@@H](NC(=O)[C@@H](NC(=O)[C@H](Cc1ccccc1)NC(=O)[C@H](CO)NC(=O)[C@H](C)NC(=O)[C@@H](N)CCCN)[C@@H](C)O)[C@@H](C)O)[C@@H](C)O)C(=O)N[C@H](C(=O)N[C@@H](CCCCN)C(N)=O)[C@@H](C)O [APi2348, OASFTTFTVTK-NH2] (H-[Orn]ASFTTFTVTK-NH2) | 0.846 | – | –
2 | CC(C)[C@H](NC(=O)[C@@H](NC(=O)[C@H](Cc1ccccc1)NC(=O)[C@@H](NC(=O)[C@@H](NC(=O)[C@H](Cc1ccccc1)NC(=O)[C@H](CO)NC(=O)[C@H](C)NC(=O)[C@H](CCCCN)NC(=O)CNC(=O)[C@H](CCC(=O)O)NC(=O)[C@@H](C)NC(=O)[C@@H](C)N)[C@@H](C)O)[C@@H](C)O)[C@@H](C)O)C(=O)N[C@H](C(=O)N[C@@H](CCCCN)C(=O)NCC(=O)N[C@@H](CO)C(=O)N[C@H](C)C(=O)N[C@H](C)C(N)=O)[C@@H](C)O [APi2354, aaEGKASFTTFTVTKGSaa-NH2] (H-[dA][dA]EGKASFTTFTVTKGS[dA][dA]-NH2) | 0.008 | 0.007 | expression of SMA relative to tubulin [2]: increased the expression of SMA relative to tubulin; solubility at pH 7.51 (in words) [1, 5]: increased solubility
3 | CC(=O)N[C@H](C)C(=O)N[C@H](C)C(=O)N[C@@H](CCC(=O)O)C(=O)NCC(=O)N[C@@H](CCCCN)C(=O)N[C@@H](C)C(=O)N[C@@H](CO)C(=O)N[C@@H](Cc1ccccc1)C(=O)N[C@H](C(=O)N[C@H](C(=O)N[C@@H](Cc1ccccc1)C(=O)N[C@H](C(=O)N[C@H](C(=O)N[C@H](C(=O)N[C@@H](CCCCN)C(=O)NCC(=O)N[C@@H](CO)C(=O)N[C@H](C)C(=O)N[C@H](C)C(N)=O)[C@@H](C)O)C(C)C)[C@@H](C)O)[C@@H](C)O)[C@@H](C)O [APi2355, Ac-aaEGKASFTTFTVTKGSaa-NH2] (Ac-[dA][dA]EGKASFTTFTVTKGS[dA][dA]-NH2) | 0.000 | 0.000 | AEC2 cell viability (lysotracker staining) [3]: strong dose-dependent increase; expression of SMA relative to tubulin [2]: increased the expression of SMA relative to tubulin; AEC2 cell viability (lysotracker staining) [4]: observed out to day 3; solubility at pH 7.51 (in words) [1, 5]: increased solubility
4 | Ac-DSGKASFTTFTVTK-NH2 [APi2353, Ac-DSGKASFTTFTVTK-NH2] | 3.000 | 3.000 | –
5 | Ac-KASFTTFTVTK-NH2 [APi2347, Ac-KASFTTFTVTK-NH2] | 2.347 | 2.284 | –
6 | Ac-KASFTTFTVTKGS-NH2 [APi2351, Ac-KASFTTFTVTKGS-NH2] | 2.523 | 2.377 | –
7 | Ac-OASFTTFTVTK-NH2 [APi2349] | 1.870 | 1.827 | –
8 | Ac-OASFTTFTVTOS-NH2 [APi2357] | 2.293 | – | –
9 | H-DSGKASFTTFTVTK-NH2 [APi2352, DSGKASFTTFTVTK-NH2] | 2.468 | 2.398 | –
10 | H-FTTFTVT-NH2 [APi2344, FTTFTVT-NH2] | 2.409 | 1.437 | –
11 | H-FTTFTVTK-NH2 [APi2345, FTTFTVTK-NH2] | – | 1.058 | solubility at pH 7.51 (in words) [1, 5]: dissolution was incomplete
12 | H-KASFTTFTVTK-NH2 [APi2346, KASFTTFTVTK-NH2] | 1.648 | 1.622 | –
13 | KASFTTFTVTKGS-NH2 [APi2350] | – | – | expression of SMA relative to tubulin [2]: increased the expression of SMA relative to tubulin; solubility at pH 7.51 (in words) ([1]; pH 7.51): increased solubility
14 | OASFTTFTVTOS-NH2 ([Orn]ASFTTFTVT[Orn]S-NH2; N-terminus assumed; SMILES CC(C)[C@H](NC(=O)[C@@H](NC(=O)[C@H](Cc1ccccc1)NC(=O)[C@@H](NC(=O)[C@@H](NC(=O)[C@H](Cc1ccccc1)NC(=O)[C@H](CO)NC(=O)[C@H](C)NC(=O)[C@@H](N)CCCN)[C@@H](C)O)[C@@H](C)O)[C@@H](C)O)C(=O)N[C@H](C(=O)N[C@@H](CCCN)C(=O)N[C@@H](CO)C(N)=O)[C@@H](C)O) [APi2356, O = Ornithine] | 0.001 | – | expression of SMA relative to tubulin [2]: increased the expression of SMA relative to tubulin; solubility at pH 7.51 (in words) ([1]; pH 7.51): increased solubility
